Measured values reported in ChEMBL document CHEMBL6074711, “Design, Synthesis, and Activity Evaluation of C-23-Modified 5-O-Mycaminosyltylonolide Derivatives” (ACS Med Chem Lett, 2024).
Values after ≈ are worked out from the molar mass of the structure shown.

Columns and labels:
[1] = system: Escherichia coli; assay: Induction of resistance development in Escherichia coli ATCC25922 treated daily with continuous passaging measured after 5 passages by absorbance based assay; format: functional; conditions: ATCC25922, 120 h, time 5 day
[2] = system: Escherichia coli; assay: Induction of resistance development in Escherichia coli ATCC25922 treated daily with continuous passaging measured after 14 passages by absorbance based assay; format: functional; conditions: ATCC25922, 336 h, time 14 day
[3] = system: Escherichia coli; assay: Induction of resistance development in Escherichia coli ATCC25922 treated daily with continuous passaging measured after 10 passages by absorbance based assay; format: functional; conditions: ATCC25922, 240 h, time 10 day
[4] = system: Staphylococcus aureus; assay: Antibacterial activity against drug-resistant Staphylococcus aureus clinical isolate M20 incubated for 16 to 20 hrs by broth microdilution method; format: functional; conditions: time 16-20 hrs
[5] = system: Staphylococcus aureus; assay: Antibacterial activity against Staphylococcus aureus ATCC25923 under 10^6 CFU/ml of bacterial inoculum culture by absorbance based assay; format: functional
[6] = system: Staphylococcus aureus; assay: Bactericidal activity against Staphylococcus aureus ATCC25923 incubated for 20 to 24 hrs; format: functional; conditions: time 20-24 hrs
[7] = system: Escherichia coli; assay: Antibacterial activity against Escherichia coli ATCC25922 incubated for 20 to 24 hrs; format: functional; conditions: time 20-24 hrs
[8] = system: Stenotrophomonas maltophilia; assay: Bactericidal activity against Stenotrophomonas maltophilia ATCC17808 incubated for 20 to 24 hrs; format: functional; conditions: time 20-24 hrs
[9] = system: Staphylococcus aureus; assay: Antibacterial activity against Staphylococcus aureus ATCC25923 under 10^4 CFU/ml of bacterial inoculum culture by absorbance based assay; format: functional
[10] = system: Enterococcus faecalis; assay: Antibacterial activity against Enterococcus faecalis ATCC29212 incubated for 20 to 24 hrs; format: functional; conditions: time 20-24 hrs
[11] = system: Stenotrophomonas maltophilia; assay: Antibacterial activity against Stenotrophomonas maltophilia ATCC17808 incubated for 16 to 20 hrs by broth microdilution method; format: functional; conditions: time 16-20 hrs
[12] = system: Staphylococcus aureus; assay: Antibacterial activity against Staphylococcus aureus ATCC25923 under 10^7 CFU/ml of bacterial inoculum culture by absorbance based assay; format: functional
[13] = system: Stenotrophomonas maltophilia; assay: Ratio of MBC to MIC for Stenotrophomonas maltophilia ATCC17808 incubated for 20 to 24 hrs; format: functional; conditions: time 20-24 hrs
[14] = system: Stenotrophomonas maltophilia; assay: Antibacterial activity against Stenotrophomonas maltophilia ATCC17808 incubated for 20 to 24 hrs; format: functional; conditions: time 20-24 hrs
[15] = system: Staphylococcus aureus; assay: Antibacterial activity against Staphylococcus aureus ATCC25923 under 10^5 CFU/ml of bacterial inoculum culture by absorbance based assay; format: functional
[16] = system: Escherichia coli; assay: Antibacterial activity against Escherichia coli ATCC25922 under 10^7 CFU/ml of bacterial inoculum culture by absorbance based assay; format: functional
[17] = system: Escherichia coli; assay: Antibacterial activity against Escherichia coli ATCC25922 incubated for 16 to 20 hrs by broth microdilution method; format: functional; conditions: time 16-20 hrs
[18] = system: Escherichia coli; assay: Antibacterial activity against Escherichia coli ATCC25922 under 10^4 CFU/ml of bacterial inoculum culture by absorbance based assay; format: functional
[19] = Cytotoxicity against mouse HT-22 cells incubated for 72 hrs by MTT assay; format: toxicity, cell-based
[20] = system: Staphylococcus aureus; assay: Antibacterial activity against Staphylococcus aureus ATCC25923 incubated for 20 to 24 hrs; format: functional; conditions: time 20-24 hrs
[21] = system: Enterococcus faecalis; assay: Antibacterial activity against Enterococcus faecalis ATCC29212 incubated for 16 to 20 hrs by broth microdilution method; format: functional; conditions: time 16-20 hrs
[22] = system: Escherichia coli; assay: Antibacterial activity against Escherichia coli ATCC25922 under 10^5 CFU/ml of bacterial inoculum culture by absorbance based assay; format: functional
[23] = Selectivity index, ratio of IC50 for mouse HT-22 cells to MIC for methicillin-resistant Staphylococcus aureus; format: toxicity, cell-based
[24] = system: Enterococcus faecalis; assay: Ratio of MBC to MIC for Enterococcus faecalis ATCC29212 incubated for 20 to 24 hrs; format: functional; conditions: time 20-24 hrs
[25] = system: Enterococcus faecalis; assay: Bactericidal activity against Enterococcus faecalis ATCC29212 incubated for 20 to 24 hrs; format: functional; conditions: time 20-24 hrs
[26] = system: Staphylococcus aureus; assay: Antibacterial activity against Staphylococcus aureus ATCC25923 incubated for 16 to 20 hrs by broth microdilution method; format: functional; conditions: time 16-20 hrs
[27] = system: Staphylococcus aureus; assay: Ratio of MBC to MIC for Staphylococcus aureus ATCC25923 incubated for 20 to 24 hrs; format: functional; conditions: time 20-24 hrs
[28] = system: Escherichia coli; assay: Antibacterial activity against drug-resistant Escherichia coli clinical isolate 1322 incubated for 16 to 20 hrs by broth microdilution method; format: functional; conditions: time 16-20 hrs
[29] = system: Escherichia coli; assay: Antibacterial activity against Escherichia coli ATCC25922 under 10^6 CFU/ml of bacterial inoculum culture by absorbance based assay; format: functional
[30] = system: Escherichia coli; assay: Antibacterial activity against drug-resistant Escherichia coli clinical isolate 1333 incubated for 16 to 20 hrs by broth microdilution method; format: functional; conditions: time 16-20 hrs
[31] = system: Escherichia coli; assay: Ratio of MBC to MIC for Escherichia coli ATCC25922 incubated for 20 to 24 hrs; format: functional; conditions: time 20-24 hrs
[32] = system: Escherichia coli; assay: Bactericidal activity against Escherichia coli ATCC25922 incubated for 20 to 24 hrs; format: functional; conditions: time 20-24 hrs

Structure (SMILES)	MIC [4] [µg/mL]	MBC [6] [µg/mL]	MIC [7] [µg/mL]	MBC [8] [µg/mL]	MIC [10] [µg/mL]	MIC [11] [µg/mL]	Ratio [13]	MIC [14] [µg/mL]	MIC [17] [µg/mL]	MIC [20] [µg/mL]	MIC [21] [µg/mL]	Ratio [24]	MBC [25] [µg/mL]	MIC [26] [µg/mL]	Ratio [27]	MIC [28] [µg/mL]	MIC [30] [µg/mL]	further results
CS(=O)(=O)c1ccc([C@@H](O)[C@@H](CF)NC(=O)C(Cl)Cl)cc1 [FLORFENICOL]	–	–	–	–	–	–	–	–	–	–	–	–	–	–	–	–	–	MIC [1]: 8 µg/mL (≈ 22.3 µM); MIC [2]: 32 µg/mL (≈ 89.3 µM); MIC [3]: 16 µg/mL (≈ 44.7 µM)
CC[C@H]1OC(=O)C[C@@H](O)[C@H](C)[C@@H](O[C@@H]2O[C@H](C)[C@@H](O)[C@H](N(C)C)[C@H]2O)[C@@H](CCN2CCCCC2)C[C@@H](C)C(=O)/C=C/C(C)=C/[C@@H]1CN1CCCCC1 [TILDIPIROSIN]	32 (≈ 43.6 µM)	4 (≈ 5.45 µM)	32 (≈ 43.6 µM)	16 (≈ 21.8 µM)	8 (≈ 10.9 µM)	1 (≈ 1.36 µM)	2	8 (≈ 10.9 µM)	1 (≈ 1.36 µM)	0.5 (≈ 0.681 µM)	16 (≈ 21.8 µM)	2	16 (≈ 21.8 µM)	16 (≈ 21.8 µM)	8	4 (≈ 5.45 µM)	16 (≈ 21.8 µM)	MIC [5]: 1 µg/mL (≈ 1.36 µM); MIC [9]: 0.5 µg/mL (≈ 0.681 µM); MIC [12]: 1 µg/mL (≈ 1.36 µM); MIC [15]: 0.5 µg/mL (≈ 0.681 µM); MIC [16]: > 32 µg/mL; MIC [18]: > 32 µg/mL; IC50 at 72 h [19]: 114 µg/mL (≈ 155 µM); MIC [22]: > 32 µg/mL; selectivity ratio [23]: 3.56; MIC [29]: > 32 µg/mL
CC[C@H]1OC(=O)C[C@@H](O)[C@H](C)[C@@H](O[C@@H]2O[C@H](C)[C@@H](O)[C@H](N(C)C)[C@H]2O)[C@@H](CCNCc2cn(-c3cnc4ccccc4c3)nn2)C[C@@H](C)C(=O)/C=C/C(C)=C/[C@@H]1CNCc1ccc(C)cc1	0.5 (≈ 0.549 µM)	1 (≈ 1.1 µM)	0.5 (≈ 0.549 µM)	4 (≈ 4.39 µM)	1 (≈ 1.1 µM)	1 (≈ 1.1 µM)	2	2 (≈ 2.2 µM)	1 (≈ 1.1 µM)	0.5 (≈ 0.549 µM)	1 (≈ 1.1 µM)	2	8 (≈ 8.79 µM)	0.5 (≈ 0.549 µM)	2	1 (≈ 1.1 µM)	4 (≈ 4.39 µM)	Ratio [31]: 2; MBC [32]: 1 µg/mL (≈ 1.1 µM)
